Data taken from patent publication US20250122191A1, “COMPOUNDS AS BCL-2 INHIBITORS” (Fochon Biosciences, Ltd, priority 2021, published 2025).

Experiments:
Type in all cases: cell-based
[1] = test system: RS4;11-BCL-2 D103E cells; test: Cell proliferation assay (MTS), RS4;11-BCL-2 D103E engineered cells; details: Homo sapiens, 72 h, read-out: RS4, 11 BCL2-D103E IC50
Description: MTS testing kit was purchased from Promega (Madison, WI, USA). The RPMI-1640, Fetal bovine serum and Penicillin-Streptomycin were purchased from BI (Biological Industries, Beit Haemek, Israel). Puromycin was purchased from Beyotime (shanghai, China). Dimethyl sulfoxide (DMSO) was purchased from Sigma (St. Louis., MO, USA). RS4;11-BCL-2 G101V (Cobioer Lot. #: CBD2021063013P4), RS4;11-BCL-2 D103E (Cobioer Lot. #: CBD2021063013P4), RS4;11-BCL-2 D103Y (Cobioer Lot. #: CBD2022012101P4) and RS4;11-BCL-2 F104L (Cobioer Lot. #: CBD2021063014P4) cells were cultured in RPMI1640 supplemented with 1 ug/mL puromycin, 100 U/mL Penicillin-Streptomycin and 10% FBS.
To investigate whether a compound is able to inhibit the activity of BCL-2 mutation in cells, a mechanism-based assay using engineered cell lines stably overexpressing BCL-2 mutation (RS4;11-BCL-2 G101V, RS4;11-BCL-2 D103E, RS4;11-BCL-2 D103Y, and RS4;11-BCL-2 F104L) was developed. In this assay, the inhibition of BCL-2 mutation was reflected by the inhibition of cell proliferation of engineered RS4;11 cells. Cells were plated into 96-well plates at optimized cell density (RS4;11-BCL-2 G101V: 5000 cells/well; RS4;11-BCL-2 D103E: 7500 cells/well; RS4;11-BCL-2 D103Y: 7500 cells/well; RS4;11-BCL-2 F104L: 5000 cells/well). Plates were incubated at 37° C., with 5% CO2 for 4 h (RS4;11-BCL-2 G101V, RS4;11-BCL-2 F104L) and 24 h (RS4;11-BCL-2 D103E, RS4;11-BCL-2 D103Y), respectively. Compounds were serially diluted and added to the plates with the final concentrations of 10000, 3333.3, 1111.1, 370.4, 123.5, 41.2, 13.7, 4.6 and 1.5 nM. Plates were incubated at 37° C., with 5% CO2 for 120 h (RS4; 11-BCL-2 G101V, RS4; 11-BCL-2 F104L) and 72 h (RS4;11-BCL-2 D103E, RS4;11-BCL-2 D103Y), respectively. 20 μl MTS was added into each well and the plates were incubated at 37° C., with 5% CO2 exactly for 2 h. The absorbance was measured by a microplate reader at 490 nm. IC50 values were calculated using GraphPad Prism 8.0 software.

[2] = test system: RS4;11-BCL-2 G101V cells; test: Cell proliferation assay (MTS), RS4;11-BCL-2 G101V engineered cells; details: Homo sapiens, 120 h, read-out: RS4, 11 BCL2-G101V IC50
How it was run: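 Cells were plated, allowed to settle 4 h (G101V, F104L) or 24 h (D103E, D103Y), and treated with serially diluted compound (10000 down to 1.5 nM). After 120 h or 72 h respectively at 37 °C, MTS was added for 2 h and absorbance at 490 nm gave IC50 values.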

[3] = test system: Toledo cells; test: Cell proliferation assay (MTS), Toledo cells; details: Homo sapiens, 72 h
How it was run: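 Toledo cells (RPMI-1640, 10% FBS) seeded at 30000 cells/well, rested 4 h, then exposed 72 h at 37 °C, 5% CO2 to compound at nine final concentrations, 1.5–10000 nM. Viability by MTS (2 h), absorbance at 490 nm. IC50 from the concentration-response.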

Structure (SMILES)	IC50 [1]	IC50 [2]	IC50 [3]
COc1nc2[nH]cc(F)c2cc1Oc1cc(N2CCC3(CC2)CC(N2CCN(C4CCC(O)CC4)C[C@H]2c2ccccc2C(C)C)C3)ccc1C(=O)NS(=O)(=O)c1cnc(NC[C@H]2CC[C@](C)(O)CC2)c([N+](=O)[O-])c1 (single isomer, unassigned) [Example 331]	1 nM	–	–
COc1nc2[nH]cc(F)c2cc1Oc1cc(N2CCC3(CC2)CC(N2CCN(Cc4ccnc(C(C)(F)F)c4)C[C@H]2c2ccccc2C(C)C)C3)ccc1C(=O)NS(=O)(=O)c1cnc(NC[C@H]2CC[C@](C)(O)CC2)c([N+](=O)[O-])c1 [Example 149, 4-(2-((R)-4-((2-(1,1-difluoroethyl)pyridin-4-yl)methyl)-2-(2-isopropylphenyl)piperazin-1-yl)-7-azaspiro[3.5]nonan-7-yl)-2-((3-fluoro-6-methoxy-1H-pyrrolo[2,3-b]pyridin-5-yl)oxy)-N-((6-((((1r,4r)-4-hydroy-4-methylcyclohexyl)methyl)amino)-5-nitropyridin-3-yl)sulfonyl)benzamide]	1 nM	–	–
[2H]C([2H])([2H])Oc1cc(CN2CCN(C3CC4(CCN(c5ccc(C(=O)NS(=O)(=O)c6cnc(NC[C@H]7CC[C@](C)(O)CC7)c([N+](=O)[O-])c6)c(Oc6cc7c(F)c[nH]c7nc6OC)c5)CC4)C3)[C@H](c3ccccc3C(C)C)C2)ccn1 [Example 164, 2-((3-fluoro-6-methoxy-1H-pyrrolo[2,3-b]pyridin-5-yl)oxy)-N-((6-((((1r,4r)-4-hydroxy-4-methylcyclohexyl)methyl)amino)-5-nitropyridin-3-yl)sulfonyl)-4-(2-((R)-2-(2-isopropylphenyl)-4-((2-(methoxy-d3)pyridin-4-yl)methyl)piperazin-1-yl)-7-azaspiro[3.5]nonan-7-yl)benzamide]	1 nM	–	–
COc1nccc(CN2CCN(C3CC4(CCN(c5ccc(C(=O)NS(=O)(=O)c6cnc(NC[C@H]7CC[C@](C)(O)CC7)c([N+](=O)[O-])c6)c(Oc6cc7c(F)c[nH]c7nc6OC)c5)CC4)C3)[C@H](c3ccccc3C(C)C)C2)n1 [Example 165, 2-((3-fluoro-6-methoxy-1H-pyrrolo[2,3-b]pyridin-5-yl)oxy)-N-((6-((((1r,4r)-4-hydroxy-4-methylcyclohexyl)methyl)amino)-5-nitropyridin-3-yl)sulfonyl)-4-(2-((R)-2-(2-isopropylphenyl)-4-((2-methoxypyrimidin-4-yl)methyl)piperazin-1-yl)-7-azaspiro[3.5]nonan-7-yl)benzamide]	1 nM	–	–
COc1nc2[nH]cc(F)c2cc1Oc1cc(N2CCC3(CC2)CC(N2CCN(Cc4ccnc5c4OCO5)C[C@H]2c2ccccc2C(C)C)C3)ccc1C(=O)NS(=O)(=O)c1cnc(NC[C@H]2CC[C@](C)(O)CC2)c([N+](=O)[O-])c1 [Example 189, 4-(2-((R)-4-([1,3]dioxolo[4,5-b]pyridin-7-ylmethyl)-2-(2-isopropylphenyl)piperazin-1-yl)-7-azaspiro[3.5]nonan-7-yl)-2-((3-fluoro-6-methoxy-1H-pyrrolo[2,3-b]pyridin-5-yl)oxy)-N-((6-((((1r,4r)-4-hydroxy-4-methylcyclohexyl)methyl)amino)-5-nitropyridin-3-yl)sulfonyl)benzamide]	1 nM	–	–
COc1nc2[nH]cc(F)c2cc1Oc1cc(N2CCC3(CC2)CC(N2CCN(Cc4ccnc5c4OCCO5)C[C@H]2c2ccccc2C(C)C)C3)ccc1C(=O)NS(=O)(=O)c1cnc(NC[C@H]2CC[C@](C)(O)CC2)c([N+](=O)[O-])c1 [Example 191, 4-(2-((R)-4-((2,3-dihydro-[1,4]dioxino[2,3-b]pyridin-8-yl)methyl)-2-(2-isopropylphenyl)piperazin-1-yl)-7-azaspiro[3.5]nonan-7-yl)-2-((3-fluoro-6-methoxy-1H-pyrrolo[2,3-b]pyridin-5-yl)oxy)-N-((6-((((1r,4r)-4-hydroxy-4-methylcyclohexyl)methyl)amino)-5-nitropyridin-3-yl)sulfonyl)benzamide]	1 nM	–	–
COc1nc2[nH]cc(F)c2cc1Oc1cc(N2CCC3(CC2)CC(N2CCN(Cc4ccnc5c4OC(C)CN5)C[C@H]2c2ccccc2C(C)C)C3)ccc1C(=O)NS(=O)(=O)c1cnc(NC[C@H]2CC[C@](C)(O)CC2)c([N+](=O)[O-])c1 (stereo partly drawn) [Example 196, 2-((3-fluoro-6-methoxy-1H-pyrrolo[2,3-b]pyridin-5-yl)oxy)-N-((6-((((1r,4r)-4-hydroxy-4-methylcyclohexyl)methyl)amino)-5-nitropyridin-3-yl)sulfonyl)-4-(2-((2R)-2-(2-isopropylphenyl)-4-((2-methyl-3,4-dihydro-2H-pyrido[3,2-b][1,4]oxazin-8-yl)methyl)piperazin-1-yl)-7-azaspiro[3.5]nonan-7-yl)benzamide]	1 nM	–	–
COc1nc2[nH]cc(F)c2cc1Oc1cc(N2CCC3(CC2)CC(N2CCN(Cc4ccc5c(c4)CCO5)C[C@H]2c2ccccc2C(C)C)C3)ccc1C(=O)NS(=O)(=O)c1cnc(NC[C@H]2CC[C@](C)(O)CC2)c([N+](=O)[O-])c1 [Example 323, 4-(2-((R)-4-((2,3-dihydrobenzofuran-5-yl)methyl)-2-(2-isopropylphenyl)piperazin-1-yl)-7-azaspiro[3.5]nonan-7-yl)-2-((3-fluoro-6-methoxy-1H-pyrrolo[2,3-b]pyridin-5-yl)oxy)-N-((6-((((1r,4r)-4-hydroxy-4-methylcyclohexyl)methyl)amino)-5-nitropyridin-3-yl)sulfonyl)benzamide]	–	1 nM	1 nM
CC(C)c1ccccc1[C@@H]1CN(C[C@@H]2COCCO2)CCN1C1CC2(CCN(c3ccc(C(=O)NS(=O)(=O)c4cnc(NC[C@H]5CC[C@](C)(O)CC5)c([N+](=O)[O-])c4)c(Oc4cnc5[nH]cc(F)c5c4)c3)CC2)C1 [Example 335, 4-(2-((R)-4-(((R)-1,4-dioxan-2-yl)methyl)-2-(2-isopropylphenyl)piperazin-1-yl)-7-azaspiro[3.5]nonan-7-yl)-2-((3-fluoro-1H-pyrrolo[2,3-b]pyridin-5-yl)oxy)-N-((6-((((1r,4r)-4-hydroxy-4-methylcyclohexyl)methyl)amino)-5-nitropyridin-3-yl)sulfonyl)benzamide]	–	1 nM	1 nM
COc1nc2[nH]cc(F)c2cc1Oc1cc(N2CCC3(CC2)CC(N2CCN(Cc4cc5c(cn4)OCCO5)C[C@H]2c2ccccc2C(C)C)C3)ccc1C(=O)NS(=O)(=O)c1cnc(NC[C@H]2CC[C@](C)(O)CC2)c([N+](=O)[O-])c1 [Example 338, 4-(2-((R)-4-((2,3-dihydro-[1,4]dioxino[2,3-c]pyridin-7-yl)methyl)-2-(2-isopropylphenyl)piperazin-1-yl)-7-azaspiro[3.5]nonan-7-yl)-2-((3-fluoro-6-methoxy-1H-pyrrolo[2,3-b]pyridin-5-yl)oxy)-N-((6-((((1r,4r)-4-hydroxy-4-methylcyclohexyl)methyl)amino)-5-nitropyridin-3-yl)sulfonyl)benzamide]	–	1 nM	1 nM
CC(C)c1ccccc1[C@@H]1CN(Cc2cc3c(cn2)OCCO3)CCN1C1CC2(CCN(c3ccc(C(=O)NS(=O)(=O)c4cnc(NC[C@H]5CC[C@](C)(O)CC5)c([N+](=O)[O-])c4)c(Oc4cnc5[nH]cc(F)c5c4)c3)CC2)C1 [Example 341, 4-(2-((R)-4-((2,3-dihydro-[1,4]dioxino[2,3-c]pyridin-7-yl)methyl)-2-(2-isopropylphenyl)piperazin-1-yl)-7-azaspiro[3.5]nonan-7-yl)-2-((3-fluoro-1H-pyrrolo[2,3-b]pyridin-5-yl)oxy)-N-((6-((((1r,4r)-4-hydroxy-4-methylcyclohexyl)methyl)amino)-5-nitropyridin-3-yl)sulfonyl)benzamide]	–	1 nM	1 nM
